Results on eight molecules are retold here after PMC6222759, “Chemical Constituents from Scindapsus officinalis (Roxb.) Schott. and Their Anti–Inflammatory Activities” (Molecules : A Journal of Synthetic Chemistry and Natural …, 2018).

The structures appear in SMILES notation.

The subject of data set [1] is NO production in LPS-induced Raw 264.7 cells. Kind of data set: Anti-inflammatory activity assay against NO production (Griess) in LPS-stimulated RAW 264.7 macrophages. The data set is classed as cell-based, mouse. Particulars: for IC50: Mus musculus, RAW264.7, LPS (1.0 μg/mL)-induced Raw 264.7 cells, 2 h pre-incubation, 24 h stimulation, mean ± SD, n = 3, read-out: IC50 NO (inhibitory effect on NO production); for Anti-inflammatory activity against nitric oxide production (in words): LPS-induced Raw 264.7 cells, compared with positive control dexamethasone. Here is the method: (Raw 264.7 cells were subjected to compounds 3 and 7 with six different concentrations and incubated for 2 h firstly, and then stimulated by adding LPS for 24 h. Then, Griess reagents I and II were added to cell supernatants to detect the NO production levels. The cytotoxicity against macrophage Raw 264.7 cells of compounds 3 and 7 were investigated using the MTT method; NO: Inhibition rates of NO release (%); MTT: Inhibition rates of cell viability (%)).
The anti-inflammatory activity assay against NO production in RAW 264.7 mouse peritoneal macrophages was conducted mainly using the procedures described previously. […] After being stimulated for 24 h, 50 μL of cell supernatants were taken out from each well and mixed with an equal volume of Griess reagents I and II to detect the NO production levels by measuring absorbance at 570 nm. All experiments were performed in triplicate. The NO inhibition is calculated as the percentage reduction of LPS stimulation.

The next data set in a line: in vitro. Particulars: mouse. As for the experimental part: (§1) The cytotoxicity against macrophage Raw 264.7 cells was investigated using the MTT assay. Briefly, after the Raw 264.7 cells were treated with the test compounds for 24 h, 50 μL of MTT (5 mg/mL) was added to each well, and the cells were incubated for an additional 4 h. After the formazan crystals formed, cell supernatants were removed and 100 μL of DMSO was added to dissolve the crystals. Absorbance for each well was analyzed in the same way as that for NO inhibition assay.

The test system of data set [2] is macrophage Raw 264.7 cells. Put plainly: Cytotoxicity against macrophage Raw 264.7 cells (MTT assay). Particulars: MTT method; concentration of 20 μM. As for the experimental part: as §1
A general note: Formazan colour is commonly taken as a measure of viable cells.

For the molecule `O=C(O)/C=C/c1ccc(O)c(O)c1` [Compound 4, caffeic acid], the IC50 in data set [1] was > 100 µM. The inhibition at 24 h, 20 µM in the data set “in vitro” stood at 1.1%.
For the molecule `CC(C)=C[C@@H]1CC=C[C@]1(C)OC1O[C@H](CO)[C@@H](O)[C@H](O)[C@H]1O` (relative stereo) [Compound 1, (rel)-(1R, 5R)-1-Methyl-5-(2-methylprop-1-en-1-yl)cyclopent-2-en-1-O-β-D-glucopyranoside], in data set [1], the IC50 was > 100 µM. In addition, in “in vitro” (Raw 264.7 macrophage cells), the inhibition at 24 h, 20 µM stood at 1.8%.
Taken in the same sequence, the figures for `OC[C@H]1O[C@@H](OCCc2ccccc2)[C@H](O)[C@@H](O)[C@@H]1O` [Compound 5, 2-phenylethyl β-D-Glucopyranoside] were > 100 µM and 4.5%.
For `CCCCCCOC1O[C@H](CO)[C@@H](O)[C@H](O)[C@H]1O` (stereo partly drawn) [Compound 6, hexyl-O-β-D-Glucopyranoside] the same measures were > 100 µM and 1.2%.
Turning to `COC(=O)/C=C1/C[C@H](O)[C@H](OC(=O)C=Cc2ccc(O)c(O)c2)[C@H]1O` [Compound 3, (Z)-(1S,2S,5S)-2,5-Dihydroxy-3-(2-methoxy-2-oxoethylidene)cyclopentyl 3-(3,4-dihydroxyphenyl) acrylate], in data set [1], the “Anti-inflammatory activity against nitric oxide production (in words)” value is “moderate inhibitory effects” and the IC50 was found to be 12.2 ± 0.8 µM. For the same molecule, the inhibition at 24 h, 20 µM in the data set “in vitro” (Raw 264.7 macrophage cells) was 4.7%. The “Cell toxicity against macrophage Raw 264.7 cells (in words)” value in data set [2] was “neither showed any cell toxicity”.
Consider `COC(=O)c1cc(O)c(O)c(O)c1` [Compound 7, methyl gallate], for which, in data set [1], the “Anti-inflammatory activity against nitric oxide production (in words)” value is on record as “moderate inhibitory effects” and the IC50 is 18.9 ± 0.3 µM. The inhibition at 24 h, 20 µM in “in vitro” stood at 2.4%. Also, the “Cell toxicity against macrophage Raw 264.7 cells (in words)” value in data set [2] is “neither showed any cell toxicity”.
Consider `C[C@@H]1C[C@H]2[C@@H]3CCC4=CC(=O)C=C[C@]4(C)[C@@]3(F)[C@@H](O)C[C@]2(C)[C@@]1(O)C(=O)CO` [Dexamethasone, dexamethasone, reference compound], for which, in data set [1], the IC50 was 2.2 ± 0.02 µM.
As to `C=CCc1ccc(OC2O[C@H](CO)[C@@H](O[C@H]3[C@H](O)[C@@H](O)[C@H](OCC4(CC)CC4)O[C@@H]3CO)[C@H](O)[C@H]2O)c(OC)c1` (stereo partly drawn) [Compound 2, 2-Methoxy-4-(prop-2-enyl)-1″-(1-ethylcyclopropyl) methanol phenyl O-β-D-glucopyranosyl-(4→4)-β-D-glucopyranoside], the IC50 in data set [1] was > 100 µM. For the same molecule, in “in vitro” (Raw 264.7 macrophage cells), the inhibition at 24 h, 20 µM is -0.5%.

As a reminder, the IC50 is the concentration at which inhibition is half-maximal. As usually defined, the inhibition is the change of the read-out against control, counted positive when it falls.
